Assay [1] addresses T1, Protein-S-isoprenylcysteine O-methyltransferase (Homo sapiens, UniProt O60725). The assay is described as follows: Inhibition of Icmt up to 100 uM after 60 mins using [3H]biotin as substrate by artifact assay.
Assay [2] concerns the target T1, Protein-S-isoprenylcysteine O-methyltransferase. The assay is described as follows: Inhibition of Icmt using [3H]SAM as substrate.

Each structure is given as a SMILES string. Calls of active or inactive are those of the source. No cut-off for these calls is given here.

T1 sequence (O60725 whole entry): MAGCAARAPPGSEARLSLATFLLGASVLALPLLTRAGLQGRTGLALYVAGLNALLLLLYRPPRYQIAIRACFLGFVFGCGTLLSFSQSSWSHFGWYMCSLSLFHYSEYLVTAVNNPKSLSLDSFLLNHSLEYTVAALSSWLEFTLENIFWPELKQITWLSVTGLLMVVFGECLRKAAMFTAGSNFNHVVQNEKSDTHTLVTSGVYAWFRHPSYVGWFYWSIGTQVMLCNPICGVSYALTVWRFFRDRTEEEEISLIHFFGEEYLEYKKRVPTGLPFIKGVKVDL

Take `COc1ccc(/C=C/C(=O)NCCc2cc(Br)c(OCCCN)c(Br)c2)cc1Br` [APLYSAMINE 6]: the result in assay [1] was inactive. In assay [2], this compound showed an IC50 of 14 µM.

The values above are taken from ChEMBL document CHEMBL1157380, “Aplysamine 6, an alkaloidal inhibitor of Isoprenylcysteine carboxyl methyltransferase from the sponge Pseudoceratina sp” (J Nat Prod, 2008).
